Experimental data published in publication PMC4721142, “Randomized controlled studies on the efficacy of antiarthritic agents in inhibiting cartilage degeneration and pain associated with progression of osteoarthritis in the rat” (Arthritis Research & Therapy, 2016).
Values joined by “and” are separate entries in the source; they are usually repeats but may differ in a detail not shown here. Identical values can stand only once.

Columns and labels:
[1] = tested on: MMT/MCLT rat model of OA; assay: MMT/MCLT trial 2 histopathology (same doses); format: in vivo; design: key to Total joint score w/o femur / Total joint score: sum: cartilage degeneration scores + mean osteophyte score; details: i.a., tacrolimus 15 ng; for Femoral cartilage degeneration score / Total joint score: mean
Source text: (§1) For MMT/MCLT rat knee joints, sections were cut in 200-μm steps; stained with toluidine blue (also with a right and left half per section); and similarly analyzed for cartilage degeneration, proteoglycan loss, collagen damage, and osteophyte formation. Results were averaged across the three sections for an overall semiquantitative score. Regional differences across the tibial plateau were taken into consideration by dividing each section into three zones delineated using an ocular micrometer (outside, middle, and inside). Scores were based on the percentage of area affected within the zone.
(§2) Cartilage degeneration in the tibia was scored on a 5-point scale as detailed in the Methods section of Additional file 1. The total extent of degeneration of the tibial plateau was measured (in micrometers) and included an analysis of cell loss, proteoglycan loss, and collagen damage. Significant cartilage degeneration reflecting any degeneration extending through more than 50 % of the cartilage thickness was also measured. Collagen damage across the medial tibial plateau (the most severely affected section of the two halves) was also quantified.
(§3) Osteophytes and femoral cartilage degeneration were analyzed as detailed in Additional file 1. Scoring of the osteophytes and categorization into small, medium, and large was performed using an ocular micrometer. The actual osteophyte measurement (tidemark to farthest distance point extending toward the synovium) was also recorded. The femoral cartilage degeneration score and the three-zone sum of the tibial cartilage degeneration scores (mean of three levels) were summed to create a total cartilage degeneration score. The mean osteophyte score for each joint was added to this value to create a total joint score. […]
(§4) Histopathology MMT/MCLT Model

[2] = tested on: MMT/MCLT rat model of OA; assay: MMT/MCLT trial 1 histopathology (same doses); format: in vivo; design: key to Tibial cartilage degeneration score, 3-zone total: sum of three tibial zone scores (each on 5-point scale); key to Total joint score w/o femur / Total joint score / Total joint score without femur: sum: cartilage degeneration scores + mean osteophyte score; details: low or only dose
Source text: as §1, §2, §3, §4

| SMILES | Femoral cartilage degeneration score [1] | Total joint score [1] | Bone score ([2]; mean) | Femoral cartilage degeneration score ([2]; mean) | Tibial cartilage degeneration score, 3-zone total ([2]; mean) | Tibial cartilage degeneration score, zone 1 ([2]; mean) | Tibial cartilage degeneration score, zone 2 ([2]; mean) | Tibial cartilage degeneration score, zone 3 ([2]; mean) | Tibial cartilage degeneration width, significant ([2]; mean) [µm] | Tibial cartilage degeneration width, total ([2]; mean) [µm] | Tibial osteophyte measure ([2]; mean) [µm] | Tibial osteophyte score ([2]; mean) | Total joint score ([2]; mean) | Total joint score w/o femur ([2]; mean) | % decrease, bone score ([2]; vs saline group) [%] | % decrease, femoral cartilage degeneration score ([2]; vs saline group) [%] | % decrease, osteophyte measure ([2]; vs saline group) [%] | % decrease, osteophyte score ([2]; vs saline group) [%] | % decrease, significant degeneration width ([2]; vs saline group) [%] | % decrease, tibial score 3-zone total ([2]; vs saline group) [%] | further results |
| --- | --- | --- | --- | --- | --- | --- | --- | --- | --- | --- | --- | --- | --- | --- | --- | --- | --- | --- | --- | --- | --- |
| COc1cc(/C=C/C(=O)CC(=O)/C=C/c2ccc(O)c(OC)c2)ccc1O [Curcumin, Diferuloylmethane] | 1.63 ± 0.61 | 9.57 ± 0.91 | 3.13 | 2.21 and 2.21 ± 0.60 | 6.50 | 4.08 | 2.38 | 0.04 | 741.67 | 1312.50 | 592.92 | 4.25 | 12.96 and 12.96 ± 0.62 | 10.75 | 4 | -20 | -16 | -9 | -2 | 1 | % decrease, tibial score zone 2 ([1]; vs saline group, curcumin 30 μg): 40%; % decrease, tibial score zone 1 ([2]; vs saline group): 5%; % decrease, tibial score zone 2 ([2]; vs saline group): -8%; % decrease, tibial score zone 3 ([2]; vs saline group): 0%; % decrease, total degeneration width ([2]; vs saline group): 0%; % decrease, total joint score ([2]; vs saline group): -5%; % decrease, total joint score w/o femur ([2]; vs saline group): -3% |
| CC(C)(C)CC(=O)OCC(=O)[C@@]12OC(C)(C)O[C@@H]1C[C@H]1[C@@H]3CCC4=CC(=O)C=C[C@]4(C)[C@@]3(F)[C@@H](O)C[C@@]12C [Triamcinolone hexacetonide] | 2.03 ± 0.52 | 11.30 ± 1.21 |  |  |  |  |  |  |  |  |  |  |  |  |  |  |  |  |  |  |  |
| CC1=C(CO)C(=O)O[C@@H]([C@@H](C)[C@H]2CC[C@H]3[C@@H]4C[C@H]5O[C@]56[C@@H](O)C=CC(=O)[C@]6(C)[C@H]4CC[C@]23C)C1 [Withaferin A] |  |  | 2.88 | 1.83 and 1.83 ± 0.52 | 6.04 | 4.13 | 1.88 | 0.04 | 637.50 | 1262.50 | 515.42 | 3.96 | 11.83 and 11.83 ± 0.61 | 10.00 | 12 | 0 | 0 | -1 | 12 | 8 | Depth ratio any matrix change, mean ([2]; mean): 0.38; Depth ratio any matrix change, zone 2 ([2]; mean): 0.18; % decrease, depth ratio mean ([2]; vs saline group): -5%; % decrease, depth ratio zone 2 ([2]; vs saline group): 0%; % decrease, tibial score zone 1 ([2]; vs saline group): 4%; % decrease, tibial score zone 2 ([2]; vs saline group): 15%; % decrease, tibial score zone 3 ([2]; vs saline group): 0%; % decrease, total degeneration width ([2]; vs saline group): 4%; % decrease, total joint score ([2]; vs saline group): 4%; % decrease, total joint score w/o femur ([2]; vs saline group): 4% |
